Test results reported in patent publication US12497411B2, “Muscarinic acetylcholine receptor subtype 4 antagonists in the treatment of anemia” (COLD SPRING HARBOR LABORATORY, priority 2019, dated 2025).

Legend:
CHRM4 = molecular target: T1, CHRM4 (Homo sapiens, UniProt P08173); assay: Radioligand binding assay, CHRM4; set-up: expressed in transfected cells; host or cells: CHO cells (membranes); settings: [3H]4-DAMP (0.2 nM), CHO cell membranes, 60 minutes at room temperature; read-out: Ki M4
T1 sequence (P08173 1-479): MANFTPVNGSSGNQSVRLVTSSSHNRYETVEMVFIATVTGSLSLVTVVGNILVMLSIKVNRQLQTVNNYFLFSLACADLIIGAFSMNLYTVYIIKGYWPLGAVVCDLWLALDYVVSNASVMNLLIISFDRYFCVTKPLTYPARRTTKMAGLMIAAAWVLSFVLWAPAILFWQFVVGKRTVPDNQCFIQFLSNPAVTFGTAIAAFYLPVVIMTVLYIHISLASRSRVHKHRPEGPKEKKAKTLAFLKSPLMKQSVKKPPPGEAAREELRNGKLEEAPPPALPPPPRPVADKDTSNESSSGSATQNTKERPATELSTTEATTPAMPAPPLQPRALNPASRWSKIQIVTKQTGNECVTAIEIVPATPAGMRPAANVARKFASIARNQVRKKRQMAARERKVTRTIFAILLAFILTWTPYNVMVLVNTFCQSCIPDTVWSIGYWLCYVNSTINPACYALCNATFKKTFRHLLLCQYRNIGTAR
Procedure: (§1) PD102807 and Compounds A-K at concentrations of 1×10^−9 M, 1×10^−8 M, 1×10^−7 M, 1×10^−6 M, and 1×10^−5 M were tested in standard binding assays with radioligands and cell membranes with receptors. Compound binding was calculated as a percent inhibition of the binding of a radioactively labeled ligand specific for each target, and the Ki values were determined. For CHRM1, the binding assay was performed using [^3H]pirenzepine (2 nM) as a radioligand and membranes of CHO cells with human recombinant CHRM1 receptor. The incubation time was 60 minutes at room temperature. For CHRM2, the binding assay was performed using [^3H]AF-DX 384 (2 nM) as a radioligand and membranes of CHO cells with human recombinant CHRM2 receptor. The incubation time was also 60 minutes at room temperature. For CHRM3, the binding assay was performed using [^3H]4-DAMP (0.2 nM) as a radioligand and membranes of CHO cells with human recombinant CHRM3 receptor. The incubation time was also 60 minutes at room temperature. For CHRM4, the binding assay was performed using [^3H]4-DAMP (0.2 nM) as a radioligand and membranes of CHO cells with human recombinant CHRM4 receptor. The incubation time was also 60 minutes at room temperature. For CHRM5, the binding assay was performed using [^3H]4-DAMP (0.3 nM) as a radioligand and membranes of CHO cells with human recombinant CHRM5 receptor. The incubation time was also 60 minutes at room temperature.

[1] = molecular target: T2, human recombinant CHRM1 receptor (Homo sapiens, UniProt P11229); assay: Radioligand binding assay, CHRM1; settings: [3H]pirenzepine (2 nM), CHO cell membranes, 60 minutes at room temperature; read-out: Ki M1
T2 construct: expressed in transfected cells; host or cells: CHO cells (membranes)
T2 sequence (P11229 1-460): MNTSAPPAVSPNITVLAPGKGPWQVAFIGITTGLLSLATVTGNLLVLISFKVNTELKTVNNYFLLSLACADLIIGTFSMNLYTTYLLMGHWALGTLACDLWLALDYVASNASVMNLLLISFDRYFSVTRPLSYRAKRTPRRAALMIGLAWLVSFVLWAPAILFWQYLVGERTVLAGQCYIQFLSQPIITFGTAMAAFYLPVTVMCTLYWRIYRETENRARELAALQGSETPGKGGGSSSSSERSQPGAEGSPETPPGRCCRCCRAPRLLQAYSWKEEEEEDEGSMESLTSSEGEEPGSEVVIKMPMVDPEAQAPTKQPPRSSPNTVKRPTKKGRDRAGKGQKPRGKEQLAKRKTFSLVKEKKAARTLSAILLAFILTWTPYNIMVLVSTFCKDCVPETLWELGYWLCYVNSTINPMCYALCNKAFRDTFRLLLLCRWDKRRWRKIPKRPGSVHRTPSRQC
Procedure: as §1

[2] = Pharmacokinetic profile (plasma) and brain penetration assay; type: in vivo, mouse; settings: mice, intraperitoneal injection, plasma and brain by LC-MS/MS
Procedure: PD102807 and Compounds A and B were intraperitoneally injected into mice. Blood was collected at each time point, and transferred tubes containing anticoagulant were centrifuged to obtain plasma. Brain samples were collected each time point and then quick frozen in liquid nitrogen and kept at −75±15° C. Brain samples were homogenized. Concentrations of PD102807 and Compound A and B in the plasma and brain samples were analyzed using the LC-MS/MS method. […] Compound G was intraperitoneally injected into mice. Blood was collected at each time point, and transferred tubes containing anticoagulant were centrifuged to obtain plasma. Brain samples were collected each time point and then quick frozen in liquid nitrogen and kept at −75±15° C. Brain samples were homogenized. Concentrations of Compound G in the plasma and brain samples were analyzed using the LC-MS/MS method.

[3] = molecular target: T3, human recombinant CHRM3 receptor (Homo sapiens, UniProt P20309); assay: Radioligand binding assay, CHRM3; settings: [3H]4-DAMP (0.2 nM), CHO cell membranes, 60 minutes at room temperature; read-out: Ki M3
T3 construct: expressed in transfected cells; host or cells: CHO cells (membranes)
Procedure: as §1

[4] = molecular target: T4, human recombinant CHRM2 receptor (Homo sapiens, UniProt P08172); assay: Radioligand binding assay, CHRM2; settings: [3H]AF-DX 384 (2 nM), CHO cell membranes, 60 minutes at room temperature; read-out: Ki M2
T4 construct: expressed in transfected cells; host or cells: CHO cells (membranes)
T4 sequence (P08172 1-466): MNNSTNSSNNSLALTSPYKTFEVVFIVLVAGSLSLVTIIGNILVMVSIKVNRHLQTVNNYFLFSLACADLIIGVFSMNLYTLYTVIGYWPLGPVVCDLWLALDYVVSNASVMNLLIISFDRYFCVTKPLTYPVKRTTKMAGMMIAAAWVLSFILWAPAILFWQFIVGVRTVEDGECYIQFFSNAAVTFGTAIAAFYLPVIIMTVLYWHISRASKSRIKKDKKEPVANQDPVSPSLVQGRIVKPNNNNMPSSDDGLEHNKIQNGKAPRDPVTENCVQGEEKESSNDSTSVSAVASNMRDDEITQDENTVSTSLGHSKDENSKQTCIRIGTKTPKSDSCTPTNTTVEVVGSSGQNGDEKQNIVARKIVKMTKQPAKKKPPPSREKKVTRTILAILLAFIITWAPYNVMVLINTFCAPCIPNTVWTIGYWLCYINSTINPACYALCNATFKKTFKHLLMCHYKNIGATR
Procedure: as §1

Mouse BFU-Es [5] = assay: Ter119 antibody staining, flow cytometry; type: cell-based; settings: with or without oxyphenonium bromide, after 12 days of culture
[6] = test system: Human CD34+ hematopoietic stem and progenitor cells; assay: Human CD34+ cell culture and counting; type: cell-based; settings: human CD34+ HSPC culture, oxyphenonium bromide (200 μM)
Procedure: Human CD34+ hematopoietic stem and progenitor cells (HSPCs) were cultured in StemSpan™ SFEM medium containing rhSCF (20 ng/ml), rhIL-3 (5 ng/ml) and EPO (1 U/ml) with various concentrations of dexamethasone and oxyphenonium. Total numbers of cells were counted using a flow-cytometer. For colony formation assay, day 8 cultured cells were plated into methylcellulose medium MethoCult™ H4034 Optimum and BFU-E colonies were counted after 13 days.

[7] = test system: hemolysis, MDS, and aging mouse models; assay: Hemolysis, MDS and aging anemia mouse models (oxyphenonium bromide); type: in vivo; settings: 25 mg/kg intraperitoneally
Procedure: (§2) Primary mouse BFU-Es were isolated from mouse embryonic day 14.5 (E14.5) fetal liver and cultured in StemSpan serum-free expansion medium, and the numbers of cells formed were counted during culture. BFU-Es were infected with either viruses encoding control shRNA or viruses encoding shRNAs targeting Chrm4, and numbers of GFP+ cells formed during culture were counted. DMSO or 25 mg/kg oxyphenonium bromide was intraperitoneally injected into the hemolysis mouse model, Mx1-cre Srsf2 P95H/WT MDS mouse model, and aging mouse model. Complete blood count (CBC) was performed after compound injection. CREB ChIP-Seq was performed on BFU-Es after culture with 100 μM oxyphenonium bromide for 45 minutes. RNA-Seq was performed in BFU-Es after being cultured with DMSO or oxyphenonium bromide for 3 days.
4-6 weeks old C57bl/6 mice were intraperitoneally injected with either control DMSO or compound every day for 3 days. On day 4, mice were intraperitoneally injected with 60 mg/kg PHZ. Mice were then intraperitoneally injected with either compound or control DMSO every day for another 3 days. Peripheral blood samples were collected retro-orbitally using heparinized capillary tubes in blood collection tubes with K2-EDTA. CBC was performed using Hemavet® 950. […]

Mouse BFU-Es [8] = assay: BFU-E colony formation assay; type: cell-based; settings: Day 6 cultured BFU-Es plated on methylcellulose, colonies counted 9 days later
[9] = test system: phosphorylated CREB in BFU-Es; assay: Phospho-CREB immunofluorescence; type: cell-based, mouse; settings: 100 μM oxyphenonium, 45 to 60 min
Procedure: Freshly isolated BFU-Es were serum starved for 1 hour and treated with either DMSO or 100 μM oxyphenonium for 45 to 60 min. 10^4 cells were collected on Poly L-Lysine coated slides using cytospin. Cells were fixed with 2% paraformaldehyde for 15 min, followed with permeabilization using 0.1% Triton X-100 for 15 min and with 2% BSA solution block for 30 min. Cells were incubated with phospho-CREB antibody (phospho […], Abeam, ab32096, 1:250) in 2% BSA for 1 hour and then incubated with FITC conjugated goat anti-mouse secondary antibody (Abcam, ab97022, 1:500) and FITC conjugated goat anti-rabbit secondary antibody (Abcam, ab97050, 1:500) in 2% BSA solution for 30 min. Cells were then incubated with DAPI for 5 min and then mounted with mounting solution.

Mouse BFU-Es [10] = assay: Primary mouse BFU-E culture assay (cell expansion); type: cell-based
Procedure: as §2
BFU-Es were isolated from mouse embryonic day 14.5 fetal liver using fluorescence-activated cell sorting (FACS) method previously described (Flygare et al., Blood 117, 3435-3444 (2011)). BFU-Es were cultured in StemSpan SFEM II medium containing rmSCF (100 ng/ml), EPO (2 U/ml), rmIGF-1 (40 ng/ml), dexamethasone (1 nmol/ml or 10 nmol/ml), oxyphenonium bromide ([…]), and orphenadrine citrate (1 μmol/ml).
BFU-Es were isolated from mouse embryonic day 14.5 fetal liver using fluorescence-activated cell sorting (FACS) method. BFU-Es were cultured in StemSpan SFEM II medium containing rmSCF (100 ng/ml), EPO (2 U/ml), rmIGF-1 (40 ng/ml), dexamethasone (1 nM), together with either DMSO, PCS1055 (5 nM), or PD102807 (3 nM). Numbers of cell formed were counted during in vitro culture.
FIGS. 7 and 8 show the results of the primary BFU-E culture assay. […] Highly purified BFU-Es were isolated as lin-Ter-119-CD16/CD32-Sca-1-CD41-c-Kit+CD71/Cd24a^10% low population using the fluorescence-activated cell sorting (FACS) method. BFU-Es were cultured in medium containing rmSCF, EPO, and rmIGF-1, in the presence of PD102807 or Compounds A-K at indicated concentrations.

T3 sequence (P20309 whole entry): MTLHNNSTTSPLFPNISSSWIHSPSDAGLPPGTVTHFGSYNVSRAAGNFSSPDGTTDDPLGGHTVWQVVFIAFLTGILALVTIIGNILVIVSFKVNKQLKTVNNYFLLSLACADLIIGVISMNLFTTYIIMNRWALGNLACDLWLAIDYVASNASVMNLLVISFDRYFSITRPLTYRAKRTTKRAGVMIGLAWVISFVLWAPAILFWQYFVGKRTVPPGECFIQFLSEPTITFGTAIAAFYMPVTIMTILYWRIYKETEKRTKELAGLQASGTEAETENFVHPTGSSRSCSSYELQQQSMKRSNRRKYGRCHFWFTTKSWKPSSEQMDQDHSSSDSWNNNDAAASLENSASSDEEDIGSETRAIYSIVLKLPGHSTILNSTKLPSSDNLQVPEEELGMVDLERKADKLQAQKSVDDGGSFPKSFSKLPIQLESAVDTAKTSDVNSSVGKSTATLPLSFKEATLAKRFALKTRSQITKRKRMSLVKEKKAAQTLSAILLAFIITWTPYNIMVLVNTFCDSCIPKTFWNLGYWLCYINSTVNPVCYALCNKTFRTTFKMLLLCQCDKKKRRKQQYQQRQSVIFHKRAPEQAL

SMILES: CCOC(=O)c1c(C)n(C)c2ccc(OC)c(C[N+]3(C)CCc4cc(OC)ccc4C3)c12.[I-] (stereo not drawn) [Compound G, 2-((3-(ethoxycarbonyl)-5-methoxy-1,2-dimethyl-1H-indol-4-yl)methyl)-6-methoxy-2-methyl-1,2,3,4-tetrahydroisoquinolin-2-ium Iodide]
- Ki (CHRM4): 1500 nM
- Ki [1]: 4400 nM
- brain penetration in comparison to PD102807 [2]: reduced brain penetration
- Ki [3]: 400 nM
- Ki [4]: 760 nM

SMILES: CC[N+](C)(CC)CCOC(=O)C(O)(c1ccccc1)C1CCCCC1 (stereo not drawn) [oxyphenonium bromide]
- percentage of Ter119+ differentiated cells (Mouse BFU-Es [5]): no difference
- expansion of erythroid cells [6]: 2 to 4 fold
- correction of anemia in vivo [7]: corrects anemia in vivo
- formation of BFU-E colonies (Mouse BFU-Es [8]): ~2 fold
- nuclear localization of phosphorylated CREB [9]: increase in nuclear localization
- production of more erythrocytes from BFU-E (Mouse BFU-Es [10]; 100 μM oxyphenonium bromide, vs culture without compound): ~10 fold
- BFU-E expansion (test of GPCR agonists and antagonists) (Mouse BFU-Es [10]; mouse BFU-E culture): triggered BFU-E expansion
